From US20080221045A1, “Hepatic Function-Improving Agent” (Kabushiki Kaisha Hayashibara Seibutsu Kagaku Kenkyujo, priority 2004, published 2008)

Assays:
hepatic functions = test: Administration test of α-glucosyl-hesperidin on hamsters (cholesterol-supplemented feed), serum GOT and GPT; assay type: in vivo, golden hamsters; conditions: for Serum GOT / Serum GPT: 0.25 mmole/kg/day by stomach sonde, 5 weeks, last 3 weeks feed with 1% cholesterol, average ± SD; for Serum GOT: distilled water control 171 ± 46, before 46 ± 8; for Serum GPT: distilled water control 418 ± 106, before 81 ± 18; for serum levels of GOT and GPT compared with the distilled water group (control 1): 0.25 mmole/kg/day
Method: The animal experiment using hamsters was performed to investigate the influences of the intake of α-glucosyl-hesperidin on hepatic functions.
A group of five golden hamsters of five weeks old was fed on liberal amount of “NMF Lab Animal Diet Powder” (produced by Oriental Yeast Co., Ltd.) with the administration of “αG-HESPERIDIN PS®” (a powdery α-glucosyl-hesperidin containing 82.8% of α-glucosyl-hesperidin, commercialized by Hayashibara Shoji, Inc.) dissolved in distilled water. α-Glucosyl-hesperidin was administered to the hamsters through a stomach sonde at a dose of 0.25 mmole (193 mg)/kg/body weight every day. After two-week administrations of α-glucosyl-hesperidin, the hamsters were fed for additional three weeks in the same way as described above except that their feed was supplemented with 1% by weight of cholesterol. At four hours after the final administrations, the hamsters were anesthetized and under went laparotomy, and their large-venous blood samples were taken. After the separation of the hamsters' serums by a conventional method, the levels of GOT and GPT were measured. As the control 1, another group was fed and its blood samples were taken in the same way except that distilled water instead of α-glucosyl-hesperidin was administered to the hamsters. As the control 2, a third group was fed and their blood samples were taken in the same way except that hesperidin (a regent grade specimen, commercialized by Wako Pure Chemical Industries, Ltd.) instead of α-glucosyl-hesperidin suspended in distilled water was administered to the hamsters at a dose of 0.25 mmole (153 mg)/kg/body weight. The other group was fed on liberal amount of “NMF Lab Animal Diet Powder” with no administration of the test articles and their blood samples were taken in the same way as describe above, and the serum levels of GOT and GPT were measured to obtain the data before the administrations.

[1] = mammals including humans with an elevated TG level; Yamada et al. 2003, Miwa et al. 2004; cited from earlier work

| SMILES | Serum GOT (hepatic functions) | Serum GPT (hepatic functions) | serum levels of GOT and GPT compared with the distilled water group (control 1) (hepatic functions; hamsters) | effect for keeping hepatic-function indexes at a lower level, compared with hesperidin (hepatic functions; hamsters, equal molar dose 0.25 mmole/kg/day) | effect on blood triglyceride (TG) level [1] |
| --- | --- | --- | --- | --- | --- |
| COc1ccc([C@@H]2CC(=O)c3c(O)cc(O[C@@H]4O[C@H](CO[C@@H]5O[C@@H](C)[C@H](O)[C@@H](O)[C@H]5O)[C@@H](O)[C@H](O)[C@H]4O)cc3O2)cc1O [Hesperidin, hesperidin, reference compound] | 101 ± 30 IU/L | 298 ± 76 IU/L | kept lower |  |  |
| COc1ccc(C2CC(=O)c3c(O)cc(O[C@@H]4OC(CO[C@@H]5OC(C)[C@H](O)C(O)C5O)[C@@H](COC[C@H]5OC(CO)[C@@H](O)C(O)C5O)C(O)C4O)cc3O2)cc1O (stereo partly drawn) [α-Glucosyl-hesperidin, α-glucosyl-hesperidin] | 66 ± 44 IU/L | 226 ± 74 IU/L | kept lower | greater effect than that of hesperidin | marked effect of reducing blood triglyceride |
